Assay results from patent publication US11661430B2, “Tetrazole derivatives as TRPA1 inhibitors” (Boehringer Ingelheim International GmbH, priority 2020, dated 2023).
pIC50: −log10 of the molar value.

Assays:
human TRPA1 ion channel = biological target: T1, human TRPA1 ion channel (Homo sapiens, UniProt O75762); assay: Assay A: TRPA1 assay (FLIPR, AITC-induced intracellular calcium in HEK293 cells); type: cell-based; details: HEK293 cells over-expressing human TRPA1, AITC 10 μM, FLIPRtetra; read-out: hTRPA1 IC50
T1 construct: host or cells: HEK293
T1 sequence (O75762 whole entry): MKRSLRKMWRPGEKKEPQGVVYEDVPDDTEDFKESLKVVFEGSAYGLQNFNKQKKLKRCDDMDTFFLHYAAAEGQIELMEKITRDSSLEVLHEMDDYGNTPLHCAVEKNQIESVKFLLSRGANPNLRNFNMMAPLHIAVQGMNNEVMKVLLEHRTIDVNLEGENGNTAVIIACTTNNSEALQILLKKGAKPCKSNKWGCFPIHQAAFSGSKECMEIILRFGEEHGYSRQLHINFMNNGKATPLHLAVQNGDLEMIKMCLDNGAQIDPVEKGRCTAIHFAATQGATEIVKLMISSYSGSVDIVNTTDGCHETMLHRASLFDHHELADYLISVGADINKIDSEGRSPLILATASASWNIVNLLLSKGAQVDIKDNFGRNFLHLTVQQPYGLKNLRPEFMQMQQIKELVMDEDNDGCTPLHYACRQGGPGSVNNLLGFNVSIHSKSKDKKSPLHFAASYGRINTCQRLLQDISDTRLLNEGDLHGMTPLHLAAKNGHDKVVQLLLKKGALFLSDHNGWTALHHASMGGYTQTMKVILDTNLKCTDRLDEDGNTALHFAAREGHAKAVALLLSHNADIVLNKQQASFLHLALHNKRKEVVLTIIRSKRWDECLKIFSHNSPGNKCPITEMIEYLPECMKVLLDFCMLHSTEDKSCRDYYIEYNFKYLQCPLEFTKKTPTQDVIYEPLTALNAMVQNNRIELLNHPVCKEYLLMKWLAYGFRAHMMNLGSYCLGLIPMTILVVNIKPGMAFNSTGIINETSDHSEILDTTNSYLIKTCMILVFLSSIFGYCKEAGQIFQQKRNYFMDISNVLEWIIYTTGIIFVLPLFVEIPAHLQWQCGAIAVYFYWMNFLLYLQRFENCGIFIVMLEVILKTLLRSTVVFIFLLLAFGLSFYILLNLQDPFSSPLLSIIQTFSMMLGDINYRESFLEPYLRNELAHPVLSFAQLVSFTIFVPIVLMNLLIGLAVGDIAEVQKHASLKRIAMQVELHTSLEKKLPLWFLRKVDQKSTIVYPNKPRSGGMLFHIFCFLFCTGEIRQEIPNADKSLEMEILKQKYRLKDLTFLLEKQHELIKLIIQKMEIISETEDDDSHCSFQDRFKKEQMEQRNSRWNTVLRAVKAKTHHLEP
Method: A human HEK293 cell line over-expressing the human TRPA1 ion channel (Perkin Elmer, Product No. AX-004-PCL) is used as a test system for compound efficacy and potency. Compound activity is determined by measuring the effect of compounds on intracellular calcium concentration induced by AITC (Allylisothiocyanat) agonism in a FLIPRtetra system (Molecular Devices).
The cells are obtained as frozen cells in cryo-vials and stored until use at −150° C. Cells are grown in culture medium (MEM/EBSS medium with 10% FCS and 0.4 mg/ML Geneticin). […] For sub-culturing cells are detached from flasks by Versene. At the day before the assay, cells are detached, washed twice with medium (MEM/EBSS medium with 10% FCS) and 20000 cells in 20 μl/well are seeded to Poly D-Lysin biocoated 384-well plates (black, clear bottom, Cat. 356697) from Corning. Plates are incubated for 24 hours at 37° C./5% CO2 before use in the assay.
The test compounds are dissolved in 100% DMSO at a concentration of 10 mM and in a first step diluted in DMSO to a concentration of 5 mM, followed by serial dilution steps in 100% DMSO. Dilution factor and number of dilution steps may vary according to needs. Typically 8 different concentrations by 1:5 dilutions are prepared, further intermediate dilutions (1:20) of the substances are carried out with HBSS/HEPES buffer (1×HEPES, Cat. 14065 from Gibco, 20 mM HEPES, Cat. 83264 from SIGMA, 0.1% BSA Cat. 11926 from Invitrogen, pH 7.4
At the assay day cells are washed 3× with assay puffer, 20 μL buffer remaining in the wells after washing. 10 μL Ca6 kit (Cat. R8191 Molecular Devices) loading buffer in HBSS/HEPES is added to the cells and the plates are incubated with lid for 120 minutes at 37°/5% CO2. […] Finally 10 μL of the agonist AITC 50 μM dissolved in HBSS/HEPES buffer/0.05% DMSO (final concentration 10 μM) is added to the wells followed by an additional read on the FLIPRtetra device for 10 minutes. The area under the signal curve (AUC) after AITC addition is used for IC50/% inhibition calculations
Data Evaluation and Calculation:
Each assay microtiter plate contains wells with vehicle (1% DMSO) controls instead of compound as controls for AITC induced luminescence (100% CTL; high controls) and wells with vehicle controls without AITC as controls for non-specific changes in luminescence (0% CTL; low controls).
The analysis of the data is performed by the calculation of the area under signal curve of the individual wells. Based on this values the % value for the measurement of each substance concentration is calculated (AUC(sample)−AUC(low))*100/(AUC(high)−AUC(low)) using MegaLab software (in house development). The IC50 values are calculated from the % control values using MegaLab software. Calculation: [y=(a−d)/(1+(x/c)^b)+d], a=low value, d=high value; x=conc M; c=IC50 M; b=hill; y=% ctrl

[1] = Assay B: Microsomal clearance; type: in vitro ADME, human; details: pooled liver microsomes, 1 μM test compound, 37° C., NADPH
Method: Assay B: Microsomal Clearance:
The metabolic degradation of the test compound is assayed at 37° C. with pooled liver microsomes. The final incubation volume of 100 μl per time point contains TRIS buffer pH 7.6 at RT (0.1 M), magnesium chloride (5 mM), microsomal protein (1 mg/ml) and the test compound at a final concentration of 1 μM.
Following a short preincubation period at 37° C., the reactions are initiated by addition of beta-nicotinamide adenine dinucleotide phosphate, reduced form (NADPH, 1 mM) and terminated by transferring an aliquot into solvent after different time points (0, 5, 15, 30, 60 min). Additionally, the NADPH-independent degradation is monitored in incubations without NADPH, terminated at the last time point. The [%] remaining test compound after NADPH independent incubation is reflected by the parameter c(control) (metabolic stability). The quenched incubations are pelleted by centrifugation (10000 g, 5 min). An aliquot of the supernatant is assayed by LC-MS/MS for the amount of parent compound. The half-life (t½ INVITRO) is determined by the slope of the semilogarithmic plot of the concentration-time profile.
The intrinsic clearance (CL_[…]) is calculated by considering the amount of protein in the incubation: CL_[…] [μl/min/mg protein]=(Ln 2/(half-life [min]*protein content [mg/ml]))*1000 CL_[…]_INVIVO [ml/min/kg]=(CL_[…] [μL/min/mg protein]×MPPGL [mg protein/g liver]×liver factor [g/kg bodyweight])/1000 Qh[%]=CL[ml/min/kg]/hepatic blood flow [ml/min/kg])
(§1) Hepatocellularity, human: 120×10e6 cells/g liver
(§2) Liver factor, human: 25.7 g/kg bodyweight
(§3) Blood flow, human: 21 ml/(min×kg)

[2] = Assay C: Hepatocyte clearance; type: in vitro ADME, human; details: hepatocyte suspension, 1 μM test compound, 5% species serum, six hours
Method: Assay C: Hepatocyte Clearance
The metabolic degradation of the test compound is assayed in a hepatocyte suspension. Hepatocytes (cryopreserved) are incubated in Dulbecco's modified eagle medium (supplemented with 3.5 μg glucagon/500 mL, 2.5 mg insulin/500 mL and 3.75 mg/500 mL hydrocortison) containing 5% species serum.
The cells are incubated for six hours (incubator, orbital shaker) and samples (25 μl) are taken at 0, 0.5, 1, 2, 4 and 6 hours. Samples are transferred into acetonitrile and pelleted by centrifugation (5 min). The supernatant is transferred to a new 96-deepwell plate, evaporated under nitrogen and resuspended.
Decline of Parent Compound is Analyzed by HPLC-MS/MS
CLint is calculated as follows CL_[…]=Dose/AUC=(CO/CD)/(AUD+clast/k)×1000/60. C0: initial concentration in the incubation [μM], CD: cell density of vital cells [10e6 cells/mL], AUD: area under the data [μM×h], clast: concentration of last data point [μM], k: slope of the regression line for parent decline [h−1].
The calculated in vitro hepatic intrinsic clearance can be scaled up to the intrinsic in vivo hepatic Clearance and used to predict hepatic in vivo blood clearance (CL) by the use of a liver model (well stirred model). CL_[…]_INVIVO [ml/min/kg]=(CL_[…] [μL/min/10e6 cells]×hepatocellularity [10e6 cells/g liver]×liver factor [g/kg bodyweight])/1000 CL[ml/min/kg]=CL_[…]_INVIVO [ml/min/kg]×hepatic blood flow [ml/min/kg]/(CL_[…]_INVIVO [ml/min/kg]+hepatic blood flow [ml/min/kg]) Qh[%]=CL[ml/min/kg]/hepatic blood flow [ml/min/kg])
as §1, §2, §3

With `NC(=O)c1csc2ncn(Cc3nnn(C[C@H](O)c4ccc(Cl)cc4)n3)c(=O)c12` [Example 1, 3-({2-[(2R)-2-(4-chlorophenyl)-2-hydroxyethyl]-2H-1,2,3,4-tetrazol-5-yl}methyl)-4-oxo-3H,4H-thieno[2,3-d]pyrimidine-5-carboxamide] as the compound, how does the pIC50 (human TRPA1 ion channel) read?
Its pIC50 is 7.55.

What about the “human LM [% Qh]” value [1] of the same compound?
The value was less than 23 % Qh.

And the “human Hepatocytes [% Qh]” value [2]?
The value was less than 4 % Qh.

With `NC(=O)c1csc2ncn(Cc3nnn(C[C@H](O)c4cc5ccc(F)cc5s4)n3)c(=O)c12` [Example 2] as the compound, how does the “human LM [% Qh]” value [1] read?
The value was 33 % Qh.

What about the “human Hepatocytes [% Qh]” value [2] of the same compound?
Its value is 19 % Qh.

For `NC(=O)c1csc2ncn(Cc3nnn(C[C@H](O)c4cc5cc(Cl)ccc5o4)n3)c(=O)c12` [Example 3], which “human LM [% Qh]” value [1] is on record?
Its value is 27 % Qh.

And the “human Hepatocytes [% Qh]” value [2]?
The value was 26 % Qh.

For `NC(=O)c1csc2ncn(Cc3nnn(C[C@H](O)c4ccc5oc(F)cc5c4)n3)c(=O)c12` [Example 4], which “human LM [% Qh]” value [1] is on record?
The value was less than 23 % Qh.

What about the “human Hepatocytes [% Qh]” value [2] of the same compound?
The value was 6 % Qh.

For `NC(=O)c1csc2ncn(Cc3nnn(C[C@H](O)c4cc5ccccc5s4)n3)c(=O)c12` [Example 5], which “human LM [% Qh]” value [1] is on record?
The value was 28 % Qh.

And the “human Hepatocytes [% Qh]” value [2]?
The value was 20 % Qh.

With `NC(=O)c1csc2ncn(Cc3nnn(C[C@H](O)c4cc5cc(F)ccc5o4)n3)c(=O)c12` [Example 6] as the compound, how does the “human LM [% Qh]” value [1] read?
Its value is less than 23 % Qh.

And the “human Hepatocytes [% Qh]” value [2]?
The value was 26 % Qh.

With `NC(=O)c1csc2ncn(Cc3nnn(C[C@H](O)c4cc(Cl)c(Cl)s4)n3)c(=O)c12` [Example 7] as the compound, how does the “human LM [% Qh]” value [1] read?
Its value is 34 % Qh.

What about the “human Hepatocytes [% Qh]” value [2] of the same compound?
Its value is 41 % Qh.

With `NC(=O)c1csc2ncn(Cc3nnn(C[C@H](O)c4cc5cc(Cl)c(F)cc5o4)n3)c(=O)c12` [Example 8] as the compound, how does the pIC50 (human TRPA1 ion channel) read?
The pIC50 was 7.59.

What about the “human LM [% Qh]” value [1] of the same compound?
The value was 26 % Qh.

And the “human Hepatocytes [% Qh]” value [2]?
The value was 20 % Qh.

With `NC(=O)c1csc2ncn(Cc3nnn(C[C@H](O)c4cc5ccccc5o4)n3)c(=O)c12` [Example 9] as the compound, how does the pIC50 (human TRPA1 ion channel) read?
The pIC50 was 7.54.

What about the “human LM [% Qh]” value [1] of the same compound?
Its value is less than 23 % Qh.

And the “human Hepatocytes [% Qh]” value [2]?
The value was 14 % Qh.

Which results are given for `Cc1ccc([C@@H](O)Cn2nnc(Cn3cnc4scc(C(N)=O)c4c3=O)n2)cc1` [Example 10]?
pIC50 (human TRPA1 ion channel): 7.51; human LM [% Qh] [1]: <23 % Qh; human Hepatocytes [% Qh] [2]: 8 % Qh

With `NC(=O)c1csc2ncn(Cc3nnn(C[C@H](O)c4ccc(Cl)s4)n3)c(=O)c12` [Example 11] as the compound, how does the pIC50 (human TRPA1 ion channel) read?
Its pIC50 is 7.51.

What about the “human LM [% Qh]” value [1] of the same compound?
Its value is less than 23 % Qh.

What about the “human Hepatocytes [% Qh]” value [2] of the same compound?
Its value is 14 % Qh.

With `NC(=O)c1csc2ncn(Cc3nnn(C[C@H](O)c4ccc(Br)cc4)n3)c(=O)c12` [Example 12] as the compound, how does the pIC50 (human TRPA1 ion channel) read?
The pIC50 was 7.47.

And the “human LM [% Qh]” value [1]?
The value was less than 23 % Qh.

What about the “human Hepatocytes [% Qh]” value [2] of the same compound?
The value was less than 4 % Qh.

With `NC(=O)c1csc2ncn(Cc3nnn(C[C@H](O)c4cc5cc(F)c(F)cc5o4)n3)c(=O)c12` [Example 13] as the compound, how does the pIC50 (human TRPA1 ion channel) read?
Its pIC50 is 7.43.

What about the “human LM [% Qh]” value [1] of the same compound?
Its value is less than 23 % Qh.

And the “human Hepatocytes [% Qh]” value [2]?
Its value is 10 % Qh.

With `NC(=O)c1csc2ncn(Cc3nnn(C[C@H](O)c4cc5cccc(F)c5o4)n3)c(=O)c12` [Example 14] as the compound, how does the pIC50 (human TRPA1 ion channel) read?
The pIC50 was 7.39.

And the “human LM [% Qh]” value [1]?
The value was less than 23 % Qh.

And the “human Hepatocytes [% Qh]” value [2]?
Its value is 14 % Qh.

What does the source list for `NC(=O)c1csc2ncn(Cc3nnn(C[C@H](O)c4cc5cc(F)c(Cl)cc5o4)n3)c(=O)c12` [Example 15]?
pIC50 (human TRPA1 ion channel): 7.19; human LM [% Qh] [1]: <23 % Qh; human Hepatocytes [% Qh] [2]: 30 % Qh

With `N#Cc1cc2ccc([C@@H](O)Cn3nnc(Cn4cnc5scc(C(N)=O)c5c4=O)n3)cc2o1` [Example 16] as the compound, how does the pIC50 (human TRPA1 ion channel) read?
The pIC50 was 7.15.

And the “human LM [% Qh]” value [1]?
Its value is less than 23 % Qh.

What about the “human Hepatocytes [% Qh]” value [2] of the same compound?
The value was 19 % Qh.

With `COc1ccc([C@@H](O)Cn2nnc(Cn3cnc4scc(C(N)=O)c4c3=O)n2)cc1` [Example 17] as the compound, how does the pIC50 (human TRPA1 ion channel) read?
Its pIC50 is 6.88.

What about the “human LM [% Qh]” value [1] of the same compound?
Its value is less than 23 % Qh.

What about the “human Hepatocytes [% Qh]” value [2] of the same compound?
The value was 18 % Qh.

With `N#Cc1ccc([C@@H](O)Cn2nnc(Cn3cnc4scc(C(N)=O)c4c3=O)n2)s1` [Example 18] as the compound, how does the pIC50 (human TRPA1 ion channel) read?
Its pIC50 is 6.84.

What about the “human LM [% Qh]” value [1] of the same compound?
Its value is less than 23 % Qh.

And the “human Hepatocytes [% Qh]” value [2]?
The value was less than 4 % Qh.
